# Measurements: patent publication US12527764B2, “Methods and compositions for treating androgen receptor deficient, androgen receptor low, and castration-resistant prostate cancers” (FRED HUTCHINSON CANCER CENTER, priority 2019, dated 2026)
# Assays:
# [1] = test system: AR+ parental APIPC xenograft; experiment: AR+ parental APIPC xenograft preclinical trial; type: in vivo, intact NOD-scid IL2Rgamma^null mice; settings: uncastrated mice, 15 mg/kg intraperitoneal, versus vehicle
# Description: (§1) 1×10^6 AR+ parental and AR− APIPC cells were resuspended 1:1 in Matrigel (Corning): RPMI-1640 (Gibco) and subcutaneously injected into the flanks of intact or castrate NOD-scid IL2Rgamma^null mice respectively. 1×1×1 mm^3 of LuCaP 173.2 tumor chunks were implanted into the flank of castrate mice. Tumor volume was calculated using the formula (L(W^2))/2, where L is the length of the tumor and W the width. When tumors reached 100 mm^3, animals were randomized to receive intraperitoneal injections of 15 mg/kg 4E1RCat (Selleckchem) or vehicle (5.2% PEG400 and 5.2% TWEEN80 in ddH2O), Monday-Friday.
# AR− APIPC xenograft = AR− APIPC xenograft preclinical trial; type: in vivo; settings: 15 mg/kg intraperitoneal
# Description: as §1
# [2] = test system: AR-null non-neuroendocrine LuCaP 173.2 PDX; experiment: LuCaP 173.2 PDX preclinical trial; type: in vivo; settings: 15 mg/kg intraperitoneal
# Description: as §1
# [3] = biological target: eIF4E-eIF4G interaction (eIF4F complex) (Homo sapiens, UniProt P06730); experiment: eIF4E-eIF4G proximity ligation assay in AR+ parental and AR− APIPC cells; type: cell-based; settings: 10 μM, 24 hours
# Chain of eIF4E-eIF4G interaction (eIF4F complex) (Homo sapiens, UniProt P06730) (P06730 whole entry, one chain of several): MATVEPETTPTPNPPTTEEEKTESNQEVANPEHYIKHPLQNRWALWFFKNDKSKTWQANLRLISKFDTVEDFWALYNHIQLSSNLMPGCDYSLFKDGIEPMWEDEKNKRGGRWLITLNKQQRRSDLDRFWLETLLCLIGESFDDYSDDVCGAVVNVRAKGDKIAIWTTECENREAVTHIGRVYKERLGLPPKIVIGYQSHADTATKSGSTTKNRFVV
# Description: (§2) The in-situ proximity ligation assay (PLA) was optimized to detect eIF4E-eIF4G or eIF4E-4EBP1 interactions in intact/castrate Pten^L/L and castrate Pten^L;4ebp1^M FFPE tissue sections and adherent cells. FFPE sections were deparaffinized, rehydrated, and subjected to antigen retrieval in a decloaking chamber at 95° C. for 30 min in Tris-based antigen unmasking solution, pH 9 (Vector). After 30 min blocking, primary antibody incubation was performed at 4° C. overnight: eIF4E (SCBT), eIF4G (CST), and 4EBP1 (CST).
# (§3) Adherent cells were grown on coverslips placed in 6-well plates until 60-70% confluent. […] Permeabilized cells were washed using 1× wash buffer followed by 1 hour blocking in a humidity chamber at 37° C. Next, cells were incubated with primary antibodies: eIF4G (CST) and eIF4E (BD Biosciences) for 2 hours at room temperature.
# (§4) After incubation with primary antibody, both FFPE tissues and adherent cells were subjected to incubation with secondary antibodies conjugated to oligonucleotides (PLA plus/minus probes) for 1 hour at 37° C. The two hybridized oligonucleotides were joined in a closed circle using a ligase at 37° C. for 30 min. The DNA was then amplified with rolling circle amplification, and detection of the amplicons was carried out using the Brightfield detection kit (Sigma).
# [4] = test system: primary intact (DHT+) Pten^L/L cells; experiment: IncuCyte in vitro proliferation assay, primary intact Pten^L/L cells; type: cell-based, mouse; settings: 48 hours, same drug concentrations as in castrate cells
# Description: (§5) Human APIPC cell lines were provided by P.S.N., and grown as previously described (11). PC3-4EBP1^M, VCaP, 22Rv1, C4-2, and LNCaP cells were cultured in RPMI-1640 with 10% FBS or phenol-red free RPMI with 10% charcoal stripped FBS (Gemini). Intact/castrate […] mouse prostates were harvested at 16 weeks of age, micro-dissected, and minced using a scalpel. Tissue chunks were incubated in 5 mg/ml collagenase II (Gibco) in Dulbecco's modified Eagle's medium for 1 hour at 37° C., followed by 5 min further digestion with TrypLE (Thermo Fisher). The dissociated cells were passed through a 40 µm nylon mesh (Falcon) to obtain single cells. Twenty thousand cells were embedded in 50 μl of Matrigel (Corning) and plated on 24-well ultra-low attachment plates (Corning). Medium components include the following: Advanced Dulbecco's Modified Eagle Medium containing B-27 supplement (Gibco), 1.25 mM N-Acetyl-L-cysteine (Sigma), 50 ng/ml EGF (Peprotech), 200 nM A83-01 (Tocris Bioscience), 500 ng/ml R-spondin1 (conditioned medium and R-spondin1 expressing plasmid provided by Y.C.), 10 μM Y-27632 (Sigma), and 100 ng/ml Noggin (Peprotech). […] Established organoids were passaged as 3D organoids or cultured as 2D cells. […] Cell proliferation was monitored by analyzing the occupied area (% confluence) of cell images over time. […]
# [5] = biological target: T1, eIF4E-eIF4G interaction (eIF4F complex) (Mus musculus, UniProt P63073); experiment: eIF4E-eIF4G proximity ligation assay in intact and castrate Pten^L/L cells; type: cell-based; settings: 50 μM, 24 hours
# T1 construct: Pten^L/L intact and castrate cells were treated with 50 μM 4E2RCat (MedChemExpress) and 20 μM 4EGI-1 (Selleckchem) for 24 hours; endogenous in cells; host or cells: primary intact and castrate Pten L/L mouse prostate cancer cells
# T1 sequence (P63073 whole entry, one chain of several): as the sequence (P06730 whole entry, one chain of several) above, with P12T, T16P, T17A, E174D counted along it
# Description: as §2, §3, §4
# [6] = test system: primary castrate (DHT−) Pten^L/L cells; experiment: IncuCyte in vitro proliferation assay, primary castrate Pten^L/L cells; type: cell-based, mouse; settings: 48 hours, same drug concentrations as in intact cells
# Description: as §5
# [7] = test system: AR− APIPC prostate cancer cells; experiment: IncuCyte in vitro proliferation assay, AR+ parental versus AR− APIPC prostate cancer cells; type: cell-based, human; settings: AR-null APIPC cells compared with parental (AR+) cells, 48 hours
# Description: as §5
# [8] = test system: de novo protein synthesis; settings: castrate Pten^L/L primary prostate cancer cells, 1 nM DHT add back, 48 hours
# Description: FIG. 9D is a representative western blot of puromycin incorporation with or without addition of 1 nM DHT for 48 hours, which increases AR signaling, in castrate Pten^L/L primary prostate cancer cells (representative of 4 biological replicates).
# Cells were lysed for 30 min on ice in lysis buffer containing 150 mM NaCl, 50 mM Tris, 4 mM KCl, 1 mM MgCl2 1 mM Na3VO4 10% glycerol, 1% Nonidet P-40, supplemented with phosphatase and protease inhibitor cocktails (Roche). Lysates were cleared by centrifugation at 12000 rpm for 15 min at 4° C. Supernatants were removed and assayed for protein concentration using the Protein Assay Dye Reagent (Bio-Rad). Equal amounts of proteins were subjected to SDS-PAGE and transferred to PVDF membranes (Bio-Rad). Membranes were blocked with 5% non-fat milk in PBS-Tween and were subsequently incubated with the following antibodies at 4° C. overnight: AR (N-terminus, Abcam), AR (C-terminus, SCBT), AR (GeneTex), p-AKT (S473, CST), p-AKT (T308, CST), eIF4E (BD Biosciences), eIF4A (CST), eIF4G (CST), 4EBP1 (CST), p-4EBP1 (Thr37/46, CST), KLF5 (Abcam), DENR (GeneTex), CACUL1 (GeneTex) FLAG (Sigma), RPS15 (Abcam), PTEN (CST), synaptophysin (CST), chromogranin A (Abcam). […] Signal detection was performed using the ChemiDoc Touch Imaging System (Bio-Rad) or standard film, and quantified using ImageJ.
# [9] = test system: 4ebp1 transcript expression; experiment: 4ebp1 transcript expression in castrate Pten^L/L cells under enzalutamide; type: cell-based, mouse; settings: further inhibition of AR
# Description: Total RNA was isolated using RNeasy Plus Mini Kit (Qiagen) and reverse-transcribed with iScript Reverse Transcription Supermix (Bio-Rad). cDNA was diluted 1:1 with water. Quantitative PCR was performed with 1 μl cDNA using SsoAdvanced SYBR Supermix (Bio-Rad) with primer sets specific for Ar, 4ebp1, Cacul1, Denr, Klf5, Rps15, Gapdh, luciferase, RPS19, and actin (Table 3). Normalized mRNA expression was calculated using the comparative Ct method.
# [10] = castrated mice, Monday-Friday, versus vehicle
compound,measurement,setting,value
"O=C(O)c1ccc(N2C(=O)/C(=C/c3ccc(-c4ccc([N+](=O)[O-])cc4)o3)C=C2c2ccccc2)cc1 [4E1RCat, 4-[(3E)-3-[[5-(4-nitrophenyl)furan-2-yl]methylidene]-2-oxo-5-phenylpyrrol-1-yl]benzoic acid]",tumor growth (sensitivity of the model),[1],completely insensitive
same,toxicity to mice (body weight),AR− APIPC xenograft; castrated NSG mice,without overt toxicity
same,survival,AR− APIPC xenograft; [10],improvement
same,tumor growth,AR− APIPC xenograft; [10],marked decrease
same,toxicity to mice (body weight),[2]; castrated NSG mice,without overt toxicity
same,survival,[2]; [10],improvement
same,tumor growth,[2]; [10],marked decrease
"O=C(O)c1cc(-c2ccc(/C=C3/SC(=S)N(Cc4ccccc4)C3=O)o2)ccc1Cl [4E2RCat, 5-[5-[(E)-(3-Benzyl-4-oxo-2-sulfanylidene-1,3-thiazolidin-5-ylidene)methyl]furan-2-yl]-2-chlorobenzoic acid]",eIF4F complex formation (proximity ligation assay),[3],disrupt eIF4F complex formation
same,effect on cell proliferation,[4],negligible effects
same,eIF4F complex formation (proximity ligation assay),[5],disrupt eIF4F complex formation
same,effect on cell proliferation,[6],profound changes
same,sensitivity of proliferation to eIF4E-eIF4G disruption,[7],more sensitive
"O=C(O)C(Cc1ccccc1[N+](=O)[O-])=NNc1nc(-c2ccc(Cl)c(Cl)c2)cs1 [4EGI-1, α-[2-[4-(3,4-Dichlorophenyl)-2-thiazolyl]-hydrazinylidene]-2-nitrobenzene-propanoic acid]",effect on cell proliferation,[4],negligible effects
same,effect on cell proliferation,[6],profound changes
same,sensitivity of proliferation to eIF4E-eIF4G disruption,[7],more sensitive
"C[C@]12CCC(=O)C[C@@H]1CC[C@@H]1[C@@H]2CC[C@]2(C)[C@@H](O)CC[C@@H]12 [DHT, dihydrotestosterone]",de novo protein synthesis (puromycin incorporation),[8],decreases
CNC(=O)c1ccc(N2C(=S)N(c3ccc(C#N)c(C(F)(F)F)c3)C(=O)C2(C)C)cc1F [enzalutamide],4ebp1 transcript expression,[9],does not impact
